Results on eight compounds are retold here after patent EP3263134A1, “COMPOSITION FOR PREVENTING OR TREATING VALVE CALCIFICATION, CONTAINING DPP-4 INHIBITOR” (The Asan Foundation, priority 2015, dated 2016).

The test system of assay [1] is eNOS-/- mouse VSMCs (vascular smooth muscle cells). As to the kind of experiment: ALP activity, inhibition of osteogenic differentiation of VSMCs. The class given is cell-based. Further details: dose or concentration left out as unconfirmed. Particulars: of each inhibitor for 7 days, 48-well plate, compared to negative control group not treated with the DPP-4 inhibitor. The method, then:
(§1) The aortas, extracted from the eNOS-/- mice and the wild-type mice together with the hearts in Example 2, were washed in serum-free M199 (Cellgro), cut to small pieces, and then cultured in M199 containing 20% fetal calf serum and 3 mg/mL collagenase (Sigma) in a water bath at 37°C for 3 hours. […] The isolated vascular smooth muscle cells were seeded at a concentration of 30%, and after 24 hours, the medium was replaced with osteogenic basal medium (Osteogenic SingleQuots, Lonza, USA). The medium was replaced at 3-day intervals during 28 days of culture.
In order to examine the effects of DPP-4 inhibitors other than sitagliptin on the inhibition of valvular calcification, the effects of treatment with various kinds of DPP-4 inhibitors on the inhibition of osteogenic differentiation of eNOS-/- mouse VSMCs (vascular smooth muscle cells) were evaluated.
eNOS-/- mouse VSMCs cultured in a 48-well plate were treated with […] of each of alogliptin, evogliptin, linaglipin, saxagliptin and vildagliptin for 7 days, and ALP activity in the cells was measured. As a result, ALP activity inhibition of 50% or lower compared to that in a negative control group not treated with the DPP-4 inhibitor was observed.

Assay [2] relates to DPP-4. Particulars: stated as known; cited from earlier work.
In assay [3] the test system is DPP-4. As to the kind of experiment: DPP-4 mRNA and protein expression in VSMCs (RT-PCR, immunoblot). The class given is cell-based, mouse. As for the experimental part: as §1
In this Example, vascular smooth muscle cells obtained according to the method of Example 3 were treated with DETA-NONOate (DETA-NO) that is an NO donor.

In another assay the test system is DPP-4 promoter. As to the kind of experiment: DPP-4 promoter activity in VSMCs (luciferase reporter). The class given is cell-based. Particulars: wild-type or eNOS-/- mouse VSMCs (FIG. 7c). As for the experimental part: To obtain more direct evidence for the regulatory function of NO in a decrease in DPP-4 expression, it was determined whether DPP-4 promoter activity would be regulated by NO.
First, VSMCs were cultured in a 6-well plate to reach a confluency of 80%. Using Lipofectamine2000 (Life Technology), a DPP-4 reporter containing a normal or mutated NF-κB binding site was cloned into a pGL3-basic vector (Promega), and the cells were transfected with the vector. After 24 hours, firefly and Renilla luciferase activities in the cells were measured using a Dual-Glo luciferase assay system, (Promega). The firefly luciferase activity was normalized with the Renilla luciferase activity.
For orientation: Reporter assays use an easily measured gene product as a stand-in for the process of interest.

A further assay concerns NF-κB. As to the kind of experiment: NF-κB activity in VSMCs. The class given is cell-based. Particulars: wild-type or eNOS-/- mouse VSMCs (FIG. 7d). The source says:
NF-κB activity in VSMCs is inhibited by NO. It was shown that NF-κB activity was higher in eNOS-/- mouse VSMCs than in wild-type mouse VSMCs, and this activity was reduced by treatment with DETA-NO (FIG. 7d). Because the DPP4 promoter has a putative NF-κB binding site, the present inventors determined whether NF-κB activity could directly regulate DPP-4 promoter activity.

Assay [4] concerns Human aortic valvular interstitial cells (VICs). As to the kind of experiment: Osteoblast differentiation (osteogenic ability) of human valvular interstitial cells. The class given is cell-based. Particulars: human VICs treated with DPP-4 plus sitagliptin (FIG. 11). The method, then:
Using human VICs, the role of DPP-4 in osteoblast differentiation was analyzed.
Human VICs were isolated from aortic valve leaflets according to a conventional cell isolation method, and VIC cells at passage 2 to 10 were used. The VIC cells were incubated with DPP-4 (R & D), sitagliptin or DETA-NONOate (Enzo Life Sciences).

Another assay deals with eNOS-/- mice. As to the kind of experiment: Osteosense680 imaging of aortic calcification / osteogenic activity after oral administration. Format: in vivo. Particulars: oral sitagliptin 15 mg/kg/day for 12 weeks, Osteosense680 imaging (FIGS. 9a, 9b). The method, then:
(§2) C57BL/6J eNOS-/- (endothelial nitric oxide synthase knockout) mice (8-week old, n = 10, The Jackson Laboratory, Bar Harbor, Me, USA) and C57BL/6J wild-type mice (8-week old, wide type, WT, n = 10) were used. After purchase, the mice were fed with standard rodent feed up to 3 months of age, and administered with saline or sitagliptin (15 mg/kg/ day, Merck & Co., Inc.) for 12 weeks.
To detect osteogenic activity in the eNOS-/- mice, a bisphosphonate-conjugated imaging agent (Osteosense680, VisEn Medical Inc.) was injected via the tail vein. Osteosense680 binds to a calcified site (particularly hydroxyapatite) in vivo and acts as an imaging agent to detect osteoblast activity. The mice were euthanized, and then the whole body or isolated aortas were imaged using OptixMX3 (ART Advanced Research Technologies, Inc).

Assay [5] has as its system aortic valves from the eNOS-/- mice. As to the kind of experiment: von Kossa (VK) staining of aortic valve sections. The class given is in vivo. Particulars: eNOS-/- mice after administration of sitagliptin (FIGS. 10a, 10b). The method, then: Human aortic valve samples were fixed in 4% formalin solution for 24 hours, and then embedded in paraffin and sectioned to a thickness of 4 µm. In order to observe calcium deposition in the paraffin-embedded aortic valve and the cardiac basal segment, Von Kossa (VK) staining and Alizarin red (AR) staining were performed. For Von Kossa staining, the aortic valve fixed in formalin was washed with distilled water, and then exposed to 5% water-soluble AgNO3 and intense light at room temperature for 60 minutes.
as §2

SMILES strings stand for the structures. Where only a bound is given, the exact number is not on record here.

On to `N#C[C@@H]1C[C@@H]2C[C@@H]2N1C(=O)[C@@H](N)C12CC3CC(CC(O)(C3)C1)C2` [saxagliptin], for which the ALP activity inhibition in assay [1] is at most 50%.

Compound `CC#CCn1c(N2CCC[C@@H](N)C2)nc2c1c(=O)n(Cc1nc(C)c3ccccc3n1)c(=O)n2C` [linaglipin] displayed an ALP activity inhibition in assay [1] of at most 50%.

In turn, `Cn1c(=O)cc(N2CCC[C@@H](N)C2)n(Cc2ccccc2C#N)c1=O` [alogliptin] registered an ALP activity inhibition in assay [1] of at most 50%.

In assay [1], `CC(C)(C)OC[C@@H]1C(=O)NCCN1C(=O)C[C@H](N)Cc1cc(F)c(F)cc1F` [evogliptin] gave an ALP activity inhibition of at most 50%.

Compound `N#C[C@@H]1CCCN1C(=O)CNC12CC3CC(CC(O)(C3)C1)C2` [vildagliptin] displayed an ALP activity inhibition in assay [1] of at most 50%.

Consider `COC(=O)[C@@H](N)CCCNC(=N)N[N+](=O)[O-]` [L-NAME, Nω-nitro-L-arginine methyl ester], for which, in the assay with DPP-4 [2], the “DPP-4 expression in the aorta” value is on record as “significantly increases DPP-4 expression in the aorta”.

Turning to `NCCN(CCN)[N+]([O-])=NO` [DETA-NO, DETA-NONOate], the “expression of DPP-4 mRNA in the VSMCs” value in the assay with DPP-4 [3] (RT-PCR after 24 hours of treatment with DETA-NO (FIG. 7a)) is recorded as “decreased”. Further, in the assay with DPP-4 [3] (immunoblot after 48 hours of treatment with DETA-NO (FIG. 7b)), the “expression of DPP-4 protein in the VSMCs” value is “also decreased”. For the same compound, the DPP-4 promoter activity entry with DPP-4 promoter is listed as “inhibited by treatment with DETA-NO in a concentration-dependent manner”. The NF-κB activity result in the assay on NF-κB was “reduced”.

As to `N[C@@H](CC(=O)N1CCn2c(nnc2C(F)(F)F)C1)Cc1cc(F)c(F)cc1F` [sitagliptin], the “DPP-4-induced increase of the osteogenic ability of VICs” value in assay [4] is “eliminated”. For the same compound, in the assay with eNOS-/- mice, the “aortic calcification in the living mice” value is “reduced aortic calcification”. For the same compound, the “aortic calcification in VK-stained sections of the aortic valves” value in assay [5] was “aortic calcification can be inhibited”.
